Data as given in BindingDB's records for doi:10.1016/0960-894X(96)00081-9 (1996).

What was measured:
[1] = target: T1, Alpha-1A/Alpha-1B/Alpha-1D adrenergic receptor (Rattus norvegicus, UniProt P15823+P43140+P23944); assay: Binding affinity at Alpha-1 adrenergic receptor in rat cerebral cortex membranes by [3H]prazosin displacement.
T1 sequence (P15823 whole entry): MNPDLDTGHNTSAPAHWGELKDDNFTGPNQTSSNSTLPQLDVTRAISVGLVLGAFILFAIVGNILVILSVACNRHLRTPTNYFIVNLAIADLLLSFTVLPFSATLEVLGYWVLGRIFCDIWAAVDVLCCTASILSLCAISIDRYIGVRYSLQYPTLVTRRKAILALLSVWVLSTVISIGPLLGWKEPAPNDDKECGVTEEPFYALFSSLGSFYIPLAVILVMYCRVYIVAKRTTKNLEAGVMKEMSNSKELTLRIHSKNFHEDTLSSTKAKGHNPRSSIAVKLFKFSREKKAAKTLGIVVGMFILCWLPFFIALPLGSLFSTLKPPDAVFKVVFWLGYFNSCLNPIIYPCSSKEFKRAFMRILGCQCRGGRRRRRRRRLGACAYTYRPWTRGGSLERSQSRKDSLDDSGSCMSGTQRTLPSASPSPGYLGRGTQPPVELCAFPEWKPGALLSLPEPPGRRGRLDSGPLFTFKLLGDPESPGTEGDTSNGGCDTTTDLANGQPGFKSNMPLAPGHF
T1 sequence (P43140 whole entry): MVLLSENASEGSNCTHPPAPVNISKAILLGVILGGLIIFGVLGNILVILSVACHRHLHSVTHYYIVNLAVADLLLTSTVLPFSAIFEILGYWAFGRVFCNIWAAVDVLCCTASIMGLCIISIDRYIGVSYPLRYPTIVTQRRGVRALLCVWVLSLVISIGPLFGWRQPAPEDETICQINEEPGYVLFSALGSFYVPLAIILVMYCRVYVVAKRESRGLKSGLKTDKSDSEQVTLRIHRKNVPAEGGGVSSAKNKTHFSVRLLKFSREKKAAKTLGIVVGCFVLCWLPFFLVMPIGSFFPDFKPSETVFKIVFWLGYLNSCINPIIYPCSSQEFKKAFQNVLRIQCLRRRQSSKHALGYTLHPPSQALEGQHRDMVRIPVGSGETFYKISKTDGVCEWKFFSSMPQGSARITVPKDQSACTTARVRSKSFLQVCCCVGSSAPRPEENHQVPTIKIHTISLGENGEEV
T1 sequence (P23944 whole entry): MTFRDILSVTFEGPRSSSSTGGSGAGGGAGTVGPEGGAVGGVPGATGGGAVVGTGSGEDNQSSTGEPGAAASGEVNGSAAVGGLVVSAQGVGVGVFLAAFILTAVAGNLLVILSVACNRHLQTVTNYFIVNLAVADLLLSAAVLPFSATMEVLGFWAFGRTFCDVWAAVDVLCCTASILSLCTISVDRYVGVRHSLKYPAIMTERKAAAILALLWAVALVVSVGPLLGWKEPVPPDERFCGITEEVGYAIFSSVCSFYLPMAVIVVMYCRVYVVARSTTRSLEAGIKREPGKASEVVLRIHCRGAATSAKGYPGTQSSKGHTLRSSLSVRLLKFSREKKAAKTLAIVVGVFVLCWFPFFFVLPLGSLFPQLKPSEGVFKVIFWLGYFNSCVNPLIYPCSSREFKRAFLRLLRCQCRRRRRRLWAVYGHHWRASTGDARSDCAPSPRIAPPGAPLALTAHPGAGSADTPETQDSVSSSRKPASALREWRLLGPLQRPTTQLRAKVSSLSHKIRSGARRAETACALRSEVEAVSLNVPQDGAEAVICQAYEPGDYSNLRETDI

[2] = target: T2, 5-hydroxytryptamine receptor 1A (Rattus norvegicus, UniProt P19327); assay: ChEBML_841
T2 sequence (P19327 whole entry): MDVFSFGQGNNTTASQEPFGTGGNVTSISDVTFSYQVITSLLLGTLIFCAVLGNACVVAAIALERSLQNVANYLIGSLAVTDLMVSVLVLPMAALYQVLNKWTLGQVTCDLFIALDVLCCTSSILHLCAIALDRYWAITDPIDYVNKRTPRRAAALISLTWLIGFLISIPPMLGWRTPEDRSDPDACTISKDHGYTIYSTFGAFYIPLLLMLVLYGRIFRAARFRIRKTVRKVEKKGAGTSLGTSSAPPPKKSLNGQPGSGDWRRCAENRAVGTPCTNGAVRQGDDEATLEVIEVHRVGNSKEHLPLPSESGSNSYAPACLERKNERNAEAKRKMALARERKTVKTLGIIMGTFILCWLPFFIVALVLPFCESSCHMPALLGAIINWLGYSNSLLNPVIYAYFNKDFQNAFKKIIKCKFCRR
Method: Compound was evaluated for its ability to displace [3H]8-OH-DPAT from serotonin 5-hydroxytryptamine 1A receptor in rat cerebral cortex membranes

Row | SMILES | Ki [1] | Ki [2]
1 | COc1ccccc1N1CCN(Cn2c(O)c3n(c2=O)CCCC3)CC1 [2-[4-(2-Methoxy-phenyl)-piperazin-1-ylmethyl]-tetrahydro-imidazo[1,5-a]pyridine-1,3-dione] | > 1 µM | –
2 | O=c1n(CCCCN2CCN(c3ccccc3)CC2)c(O)c2n1CCCC2 [2-[4-(4-Phenyl-piperazin-1-yl)-butyl]-tetrahydro-imidazo[1,5-a]pyridine-1,3-dione] | 0.019 µM | –
3 | O=c1n(CCCN2CCN(c3cccc(Cl)c3)CC2)c(O)c2n1CCCC2 [2-{3-[4-(3-Chloro-phenyl)-piperazin-1-yl]-propyl}-tetrahydro-imidazo[1,5-a]pyridine-1,3-dione] | 0.018 µM | 0.054 µM
